Data reported in US11865129B2, “Application of anemoside B4 in preparation of a drug for treatment or prevention of psoriasis” (GUANGXI XINHAI PHARMACEUTICAL TECHNOLOGY CO., LTD., priority 2021, dated 2024).

Columns and labels:
[1] = system: VEGF; experiment: VEGF level in serum by ELISA, psoriasis model rats; format: in vivo, SD male rats; conditions: 7 days, vs model control group
Method: (§1) 60 SPF-grade SD male rats in the second animal group are divided into 6 groups: a blank control group, a model control group, an anemoside B4 intragastric administration group (5 mg/kg), an anemoside B4 intragastric administration group (10 mg/kg), an anemoside B4 intragastric administration group (20 mg/kg), and an acitretin intragastric administration group (5 mg/kg), and are respectively expressed into the blank control group, the model group, anemoside B4 5 mg/kg, anemoside B4 10 mg/kg, anemoside B4 20 mg/kg, and acitretin 5 mg/kg in FIGS. 3, 4 and 5 for convenience. A shaving area on the back of the rats in each group is 2.5 cm×3 cm, and the vellus is removed with mild depilatory cream. The rats of each group except the blank control group are modeled by administrating 62.5 mg 5% imiquimod cream on the shaving area until the skin is thickened and has erythema and silver scales for modeling completely.
(§2) 5% imiquimod cream is administrated once a day, and continuously administrated for 8 days for model establishment. On the second day, the rats in each group are continuously intragastric (i.g.) administered drugs for 7 days.
(§3) After administration, blood is taken from abdominal aorta of the rats in each group of the second animal group, centrifuged to collect the serum, and measured the M-CSF, VEGF, IL-6 and IL-17 level in the serum by ELISA kits according to the procedures of specification.

[2] = system: M-CSF; experiment: M-CSF level in serum by ELISA, psoriasis model rats; format: in vivo, SD male rats; conditions: 7 days, vs model control group
Method: as §1, §2, §3

[3] = system: 5% imiquimod-induced psoriatic lesions; experiment: Psoriatic lesions and PASI, 5% imiquimod-induced psoriasis model in mice (first animal group); format: in vivo, BALB/c male mice; conditions: for skin lesions of the mice: 12 days
Method: (§4) A shaving area on the back of the mice in each group is 2.5 cm×3 cm, and the vellus is removed with mild depilatory cream. The mice of each group except the blank control group are modeled by administrating 62.5 mg 5% imiquimod cream on the shaving area until the skin is thickened and has erythema and silver scales for modeling completely. During the model establishment, 5% imiquimod cream is administrated once a day, and continuously administrated for 14 days. On the third day, the model establishment is continued and drugs are administered at the same time, wherein the mice in the AC intragastric administration group (8 mg/kg), the anemoside B4 intragastric (i.g.) administration group (5 mg/kg), the anemoside B4 intragastric administration group (10 mg/kg), and the anemoside B4 intragastric administration group (20 mg/kg) are administrated once a day, and continuously administrated for 12 days. […] The mice in the blank control group and the model control group are applied 62.5 mg Vaseline to the skin lesions once a day, and continuously applied for 12 days. The weight of the mice is recorded for counting the weight change of the mice.

[4] = system: IL-17; experiment: IL-17 level in serum by ELISA, psoriasis model rats; format: in vivo, SD male rats; conditions: 7 days, vs model control group
Method: as §1, §2, §3

[5] = system: IL-17; experiment: IL-17 level in skin tissue, psoriasis model mice; format: in vivo, BALB/c male mice; conditions: 12 days, compared with model control group
Method: as §4, with “mice. 100 mg skin tissue of the mice in each group of the first animal group are precisely weighed, added 0.9 mL ice normal saline, homogenized with the tissue grinder, and centrifuged at 4° C. and 3000 rpm for 10 min. The supernatant is collected, and IL-12, IL-17, IL-6 and IL-1β level in the skin tissue are measured by kits according to the procedures of specification.” for “mice.”

[6] = system: white blood cell (WBC), Neutrophilicgranulocyte (Neu) and Lymphocyte (Lym); experiment: Blood analysis (blood routine tester), psoriasis model mice; format: in vivo, BALB/c male mice; conditions: 12 days, compared with model control group
Method: as §4, with “mice. Eyeball blood of the mice in each group of the first animal group is drawn on the last day, and measured the level of white blood cell (WBC), […] (Neu) and Lymphocyte (Lym) in blood with the blood routine tester.” for “mice.”

[7] = system: IL-12; experiment: IL-12 level in skin tissue, psoriasis model mice; format: in vivo, BALB/c male mice; conditions: 12 days, compared with model control group
Method: as §4, with “mice. 100 mg skin tissue of the mice in each group of the first animal group are precisely weighed, added 0.9 mL ice normal saline, homogenized with the tissue grinder, and centrifuged at 4° C. and 3000 rpm for 10 min. The supernatant is collected, and IL-12, IL-17, IL-6 and IL-1β level in the skin tissue are measured by kits according to the procedures of specification.” for “mice.”

[8] = intragastric 5 mg/kg once a day
[9] = intragastric 10 mg/kg once a day
[10] = intragastric 20 mg/kg once a day

Structure (SMILES): C=C(C)[C@@H]1CC[C@]2(C(=O)O[C@@H]3O[C@H](CO[C@@H]4O[C@H](CO)[C@@H](O[C@@H]5O[C@@H](C)[C@H](O)[C@@H](O)[C@H]5O)[C@H](O)[C@H]4O)[C@@H](O)[C@H](O)[C@H]3O)CC[C@]3(C)[C@H](CC[C@@H]4[C@@]5(C)CC[C@H](O[C@@H]6OC[C@H](O)[C@H](O)[C@H]6O[C@@H]6O[C@@H](C)[C@H](O)[C@@H](O)[C@H]6O)[C@@](C)(CO)[C@@H]5CC[C@]43C)[C@H]12 [anemoside B4]
- VEGF level in serum ([1]; intragastric 5 mg/kg): significantly decreased
- VEGF level in serum ([1]; intragastric 10 mg/kg): significantly decreased
- VEGF level in serum ([1]; intragastric 20 mg/kg): significantly decreased
- M-CSF level in serum ([2]; intragastric 5 mg/kg): significantly decreased
- M-CSF level in serum ([2]; intragastric 10 mg/kg): significantly decreased
- M-CSF level in serum ([2]; intragastric 20 mg/kg): significantly decreased
- improvement of the skin lesions, compared with the acitretin capsules (AC) intragastric administration group ([3]; anemoside B4 groups, doses not specified): better
- skin lesions of the mice [3, 8]: significantly improved
- skin lesions of the mice [3, 9]: significantly improved
- skin lesions of the mice [3, 10]: significantly improved
- IL-17 level in serum ([4]; intragastric 5 mg/kg): significantly decreased
- IL-17 level in serum ([4]; intragastric 10 mg/kg): significantly decreased
- IL-17 level in serum ([4]; intragastric 20 mg/kg): significantly decreased
- level of IL-17 in the skin tissue [5, 8]: significantly reduced
- level of IL-17 in the skin tissue [5, 9]: significantly reduced
- level of IL-17 in the skin tissue [5, 10]: significantly reduced
- Lym in blood [6, 8]: significantly decreased
- Neu in blood [6, 8]: significantly decreased
- WBC in blood [6, 8]: significantly decreased
- Lym in blood [6, 9]: significantly decreased
- Neu in blood [6, 9]: significantly decreased
- WBC in blood [6, 9]: significantly decreased
- Lym in blood [6, 10]: significantly decreased
- Neu in blood [6, 10]: significantly decreased
- WBC in blood [6, 10]: significantly decreased
- level of IL-12 in the skin tissue [7, 8]: significantly reduced
- level of IL-12 in the skin tissue [7, 9]: significantly reduced
- level of IL-12 in the skin tissue [7, 10]: significantly reduced
